Test [1] concerns the target T1, rat adrenergic α1B receptor (Rattus norvegicus, UniProt P15823).
T1 construct: rat adrenergic α1B receptor obtained from Wistar Rat liver; from tissue; host or cells: Wistar rat liver
T1 sequence (P15823 1-515): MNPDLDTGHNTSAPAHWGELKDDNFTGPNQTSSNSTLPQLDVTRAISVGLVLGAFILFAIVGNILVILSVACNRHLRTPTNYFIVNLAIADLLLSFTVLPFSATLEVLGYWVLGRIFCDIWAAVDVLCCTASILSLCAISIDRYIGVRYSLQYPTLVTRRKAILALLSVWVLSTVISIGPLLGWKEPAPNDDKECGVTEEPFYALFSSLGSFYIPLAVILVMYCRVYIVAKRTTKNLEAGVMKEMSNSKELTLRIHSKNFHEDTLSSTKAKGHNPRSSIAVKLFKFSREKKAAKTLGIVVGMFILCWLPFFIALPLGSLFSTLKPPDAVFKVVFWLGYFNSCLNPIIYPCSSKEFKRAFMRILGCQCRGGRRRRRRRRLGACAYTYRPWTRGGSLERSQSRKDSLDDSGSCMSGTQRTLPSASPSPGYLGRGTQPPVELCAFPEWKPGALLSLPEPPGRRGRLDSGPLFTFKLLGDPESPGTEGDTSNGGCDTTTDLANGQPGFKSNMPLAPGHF
The test is described as follows: Radioligand binding, adrenergic α1B ([3H]Prazosin). The note with it: [3H]Prazosin, repeat datapoints each shown; for Percentage inhibition of ligand binding, Adrenergic α1B (0.1 μM): compound at 0.1 μM. A digest of the protocol:
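Specific binding, taken as total minus that remaining with 10 μM phentolamine, is measured after filtration and counting. Rat liver receptor preparation and 0.25 nM [3H]prazosin are incubated with compound in 50 mM Tris-HCl (pH 7.4, 0.5 mM EDTA) at 25° C for 60 min. Activity is reported as percent inhibition.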

For test [2], the target named is T2, human recombinant adrenergic α2B receptor (Homo sapiens, UniProt P18089).
T2 construct: expressed in transfected cells; host or cells: CHO-K1
T2 sequence (P18089 1-450): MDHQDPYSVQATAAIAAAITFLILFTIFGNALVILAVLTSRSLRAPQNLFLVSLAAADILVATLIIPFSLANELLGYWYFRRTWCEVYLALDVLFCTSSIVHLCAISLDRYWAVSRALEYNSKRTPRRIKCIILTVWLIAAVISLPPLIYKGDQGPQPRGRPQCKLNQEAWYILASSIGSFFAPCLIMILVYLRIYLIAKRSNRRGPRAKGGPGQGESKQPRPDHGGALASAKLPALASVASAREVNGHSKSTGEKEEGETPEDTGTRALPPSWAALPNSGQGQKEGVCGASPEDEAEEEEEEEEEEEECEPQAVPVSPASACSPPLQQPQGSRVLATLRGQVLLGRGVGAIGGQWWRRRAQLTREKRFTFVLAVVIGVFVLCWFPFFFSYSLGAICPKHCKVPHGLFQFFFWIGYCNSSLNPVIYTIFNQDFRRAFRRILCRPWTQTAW
The test is described as follows: Radioligand binding, adrenergic α2B ([3H]Rauwolscine). As to conditions: for inhibition at 0.03 µM: read-out: Percentage inhibition of ligand binding, Adrenergic α2B (0.03 μM), compound at 0.03 μM; for inhibition at 0.03 µM / Percentage inhibition of ligand binding, Adrenergic α2B (0.03 μM): [3H]Rauwolscine, repeat datapoints each shown; for Percentage inhibition of ligand binding, Adrenergic α2B (0.03 μM): compound at 0.03 μM. An outline of the steps: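 Assay used CHO-K1-expressed human α2B receptor in Tris-HCl pH 7.4 buffer with MgCl2, EDTA and BSA; 60 min incubation at 25 °C.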

The target of test [3] is T3, human recombinant adrenergic α2A receptor (Homo sapiens, UniProt P08913).
T3 construct: expressed in transfected cells; host or cells: insect Sf9 cells
T3 sequence (P08913 1-465): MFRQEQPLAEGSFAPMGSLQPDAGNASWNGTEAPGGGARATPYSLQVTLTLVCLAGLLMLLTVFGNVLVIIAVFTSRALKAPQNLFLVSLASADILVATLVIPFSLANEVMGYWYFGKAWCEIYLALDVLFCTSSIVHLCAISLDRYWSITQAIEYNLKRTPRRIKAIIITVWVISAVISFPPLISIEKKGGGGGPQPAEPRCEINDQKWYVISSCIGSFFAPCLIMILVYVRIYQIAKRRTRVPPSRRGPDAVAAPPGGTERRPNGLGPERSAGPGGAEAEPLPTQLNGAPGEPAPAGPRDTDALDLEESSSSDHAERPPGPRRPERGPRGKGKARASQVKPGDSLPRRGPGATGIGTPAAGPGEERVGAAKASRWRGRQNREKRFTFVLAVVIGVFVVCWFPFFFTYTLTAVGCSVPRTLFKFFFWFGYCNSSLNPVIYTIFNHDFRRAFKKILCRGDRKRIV
The test is described as follows: Radioligand binding, adrenergic α2A ([3H]MK-912). The note with it: compound at 0.1 μM; [3H]MK-912; repeat datapoints each shown; 0.1 µM. An outline of the steps: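 Receptor expressed in Sf9 cells, in 50 mM Tris-HCl pH 7.4, 12.5 mM MgCl2, 2 mM EDTA; compounds incubated with 1 nM [3H]MK-912 for 60 min at 25 °C.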

Structures are written as SMILES. “And” between values parts separate entries of the source, which are not always exact repeats. Equal values may be shown once.

`Cc1cnc2c(c1)c1c(n2CCc2ccc(C)nc2)CCN2CCCCC12` (single isomer, unassigned) [IV-8a]: the “Percentage inhibition of ligand binding, Adrenergic α1B (0.1 μM)” value in test [1] is reported as 49%. Moreover, the inhibition at 0.03 µM in test [2] is 4%. The “Percentage inhibition of ligand binding, Adrenergic α2A (0.1 μM)” value in test [3] is 7%.

Turning to `Cc1cnc2c(c1)c1c(n2CCc2ccc(C)nc2)CCN2CCCCC12` (single isomer, unassigned) [IV-8b], in test [1], the “Percentage inhibition of ligand binding, Adrenergic α1B (0.1 μM)” value amounted to 5%. In addition, the “Percentage inhibition of ligand binding, Adrenergic α2B (0.03 μM)” value (shortened to “Percentage inhibition … (0.03 μM)”) in test [2] amounted to 3%. Moreover, the “Percentage inhibition of ligand binding, Adrenergic α2A (0.1 μM)” value in test [3] is reported as 22%.

Regarding `Cc1cnc2c(c1)c1c(n2CCc2cnc(C)nc2)CCN2CCCC12` (single isomer, unassigned) [IV-93a], the “Percentage inhibition of ligand binding, Adrenergic α1B (0.1 μM)” value in test [1] came out at 7%. Moreover, the inhibition at 0.03 µM in test [2] turned out to be 52%. Besides, the “Percentage inhibition of ligand binding, Adrenergic α2A (0.1 μM)” value in test [3] is listed as 18%.

For `Cc1cnc2c(c1)c1c(n2CCc2cnc(C)nc2)CCN2CCCC12` (single isomer, unassigned) [IV-93b], the “Percentage inhibition of ligand binding, Adrenergic α1B (0.1 μM)” value in test [1] worked out at 65%. Besides, the “Percentage inhibition … (0.03 μM)” value in test [2] is 44%. The “Percentage inhibition of ligand binding, Adrenergic α2A (0.1 μM)” value in test [3] is −1%.

For the molecule `Cc1cnc2c(c1)c1c(n2CC(O)c2ccncc2)CCN2CCCC12` (single isomer, unassigned) [IV-209a, 2-(9-Methyl-1,2,3,4,5,10c-hexahydro-3a,6,7-triaza-cyclopenta[c]fluoren-6-yl)-1-pyridin-4-yl-ethanol], in test [1], the “Percentage inhibition of ligand binding, Adrenergic α1B (0.1 μM)” value is listed as 89%. Also, the “Percentage inhibition … (0.03 μM)” value in test [2] is reported as 72%. Besides, the “Percentage inhibition of ligand binding, Adrenergic α2A (0.1 μM)” value in test [3] came out at 6%.

In the case of `Cc1cnc2c(c1)c1c(n2CC(O)c2ccncc2)CCN2CCCC12` (single isomer, unassigned) [IV-209b, 2-(9-Methyl-1,2,3,4,5,10c-hexahydro-3a,6,7-triaza-cyclopenta[c]fluoren-6-yl)-1-pyridin-4-yl-ethanol], the “Percentage inhibition of ligand binding, Adrenergic α1B (0.1 μM)” value in test [1] is 11%. The “Percentage inhibition … (0.03 μM)” value in test [2] was 13%. Besides, in test [3], the “Percentage inhibition of ligand binding, Adrenergic α2A (0.1 μM)” value stood at 10%.

As for `Cc1cnc2c(c1)c1c(n2CC(O)c2ccncc2)CCN2CCCC12` (single isomer, unassigned) [IV-209c, 2-(9-Methyl-1,2,3,4,5,10c-hexahydro-3a,6,7-triaza-cyclopenta[c]fluoren-6-yl)-1-pyridin-4-yl-ethanol], the “Percentage inhibition of ligand binding, Adrenergic α1B (0.1 μM)” value in test [1] amounted to 98%. Besides, the “Percentage inhibition … (0.03 μM)” value in test [2] is 102%. Also, the “Percentage inhibition of ligand binding, Adrenergic α2A (0.1 μM)” value in test [3] was 59%.

`Cc1cnc2c(c1)c1c(n2CC(O)c2ccncc2)CCN2CCCC12` (single isomer, unassigned) [IV-209d, 2-(9-Methyl-1,2,3,4,5,10c-hexahydro-3a,6,7-triaza-cyclopenta[c]fluoren-6-yl)-1-pyridin-4-yl-ethanol]: the “Percentage inhibition of ligand binding, Adrenergic α1B (0.1 μM)” value in test [1] turned out to be 54%. Also, in test [2], the “Percentage inhibition … (0.03 μM)” value stood at 79%. Besides, the “Percentage inhibition of ligand binding, Adrenergic α2A (0.1 μM)” value in test [3] was found to be 8%.

Take `CC(O)(Cn1c2c(c3cc(Cl)cnc31)C1CCCN1CC2)c1cccnc1` (single isomer, unassigned) [IV-210a]: the “Percentage inhibition of ligand binding, Adrenergic α1B (0.1 μM)” value in test [1] is 70% and 75%. The inhibition at 0.03 µM in test [1] (read-out: Percentage inhibition of ligand binding, Adrenergic α1B (0.03 μM), compound at 0.03 μM) turned out to be 43%. In addition, the “Percentage inhibition … (0.03 μM)” value in test [2] was 101% and 103%. Further, the Ki in test [2] (read-out: Ki α2B) amounted to 0.33 nM. The “Percentage inhibition of ligand binding, Adrenergic α2A (0.1 μM)” value in test [3] is reported as 37%.

On to `CC(O)(Cn1c2c(c3cc(Cl)cnc31)C1CCCN1CC2)c1cccnc1` (single isomer, unassigned) [IV-210b], for which, in test [1], the “Percentage inhibition of ligand binding, Adrenergic α1B (0.1 μM)” value is listed as 10%. Further, the “Percentage inhibition … (0.03 μM)” value in test [2] came to 29%. Besides, the “Percentage inhibition of ligand binding, Adrenergic α2A (0.1 μM)” value in test [3] was 8%.

For `CC(O)(Cn1c2c(c3cc(Cl)cnc31)C1CCCN1CC2)c1cccnc1` (single isomer, unassigned) [IV-210c], the “Percentage inhibition of ligand binding, Adrenergic α1B (0.1 μM)” value in test [1] was −4%. Moreover, the “Percentage inhibition … (0.03 μM)” value in test [2] stood at 10%. In addition, the “Percentage inhibition of ligand binding, Adrenergic α2A (0.1 μM)” value in test [3] came out at 1%.

In the case of `CC(O)(Cn1c2c(c3cc(Cl)cnc31)C1CCCN1CC2)c1cccnc1` (single isomer, unassigned) [IV-210d], the “Percentage inhibition of ligand binding, Adrenergic α1B (0.1 μM)” value in test [1] worked out at 19%. Also, the “Percentage inhibition … (0.03 μM)” value in test [2] is reported as 87%. Further, in test [3], the “Percentage inhibition of ligand binding, Adrenergic α2A (0.1 μM)” value is 13%.

Take `Cc1ccc2c(c1)c1c(n2CC(C)(OCC(=O)O)c2cccnc2)CCN(C)C1` (single isomer, unassigned) [V-14a, 2-((1-(2,8-dimethyl-3,4-dihydro-1H-pyrido[4,3-b]indol-5(2H)-yl)-2-(pyridin-3-yl)propan-2-yl)oxy)acetic acid]: the “Percentage inhibition of ligand binding, Adrenergic α1B (0.1 μM)” value in test [1] is on record as 0%. Besides, the “Percentage inhibition … (0.03 μM)” value in test [2] turned out to be 7%. For the same molecule, the “Percentage inhibition of ligand binding, Adrenergic α2A (0.1 μM)” value in test [3] is recorded as 18%.

Consider `Cc1ccc2c(c1)c1c(n2CC(C)(OCC(=O)O)c2cccnc2)CCN(C)C1` (single isomer, unassigned) [V-14b, 2-((1-(2,8-dimethyl-3,4-dihydro-1H-pyrido[4,3-b]indol-5(2H)-yl)-2-(pyridin-3-yl)propan-2-yl)oxy)acetic acid], for which the “Percentage inhibition of ligand binding, Adrenergic α1B (0.1 μM)” value in test [1] came to 2%. Besides, the “Percentage inhibition … (0.03 μM)” value in test [2] was 0%. In test [3], the “Percentage inhibition of ligand binding, Adrenergic α2A (0.1 μM)” value is recorded as 3%.

Take `Cc1ccc2c(c1)c1c(n2CC(OC(=O)CCC(=O)O)c2ccncc2)CCN2CCCC12` (single isomer, unassigned) [V-18a, 4-(2-(10-methyl-2,3,5,6-tetrahydro-1H-indolizino[7,8-b]indol-7(11cH)-yl)-1-(pyridin-4-yl)ethoxy)-4-oxobutanoic acid]: the inhibition at 0.1 µM in test [1] (read-out: Percentage inhibition of ligand binding, Adrenergic α1B (0.1 μM), compound at 0.1 μM) was 78%. Besides, the “Percentage inhibition … (0.03 μM)” value in test [2] came out at 57%. The “Percentage inhibition of ligand binding, Adrenergic α2A (0.1 μM)” value in test [3] is 13%.

For `Cc1ccc2c(c1)c1c(n2CC(OC(=O)CCC(=O)O)c2ccncc2)CCN2CCCC12` (single isomer, unassigned) [V-18b, 4-(2-(10-methyl-2,3,5,6-tetrahydro-1H-indolizino[7,8-b]indol-7(11cH)-yl)-1-(pyridin-4-yl)ethoxy)-4-oxobutanoic acid], the “Percentage inhibition of ligand binding, Adrenergic α1B (0.1 μM)” value in test [1] amounted to 95%. The “Percentage inhibition … (0.03 μM)” value in test [2] was 98%. Besides, in test [3], the “Percentage inhibition of ligand binding, Adrenergic α2A (0.1 μM)” value amounted to 57%.

The record behind these values is patent US8791132B2, “Compounds and methods for treatment of hypertension” (Medivation Technologies, Inc., priority 2011, dated 2014).
